Test results taken from patent US11833228B2, “Fluorinated beta-hydroxybutyric acids for PET imaging” (The Governors of the University of Alberta, priority 2019, dated 2023).

Key:
[1] = system: subcutaneous MCF-7 breast cancer tumor; test: Dynamic PET imaging of radiotracer uptake in MCF-7 tumor-bearing mice; type: in vivo
Protocol: (§1) Mice were anesthetized with isoflurane (40% O2/60% N2) and their body temperature was kept constant at 37° C. They were positioned and immobilized in prone position into the centre of the field of view of an INVEON® PET scanner (Siemens Preclinical Solutions, Knoxville, TN, USA). A transmission scan for attenuation correction was not acquired. Radioactivity present in the injection solution (0.5 mL insulin syringe) was determined using a dose calibrator (Atomlab™ 300, Biodex Medical Systems, New York, NY, USA). After the emission scan was started, radioactivity (4-8 MBq in 100-150 μL saline) was injected with a delay of ˜15 s through a tail vein catheter. Dynamic PET data acquisition was performed in 3D list mode for 60 min. Dynamic list mode data were sorted into sinograms with 54 time frames (10×2 s, 8×5 s, 6×10 s, 6×20 s, 8×60 s, 10×120 s, 5×300 s). Frames were reconstructed using the maximum a posteriori (MAP) reconstruction mode. No correction for partial volume effects was performed. Image files were further processed using the ROVER v2.0.51 software (ABX GmbH, Radeberg, Germany). Masks defining 3D ROI were set and defined by 50% thresholding. Mean standardized uptake values [SUV=(activity/mL tissue)/(injected activity/body weight) were calculated for each ROI. Time-activity curves (TAC) were generated from the dynamic scans using GraphPad® Prism 5.04 (GraphPad Software, La Jolla, CA, USA).
(§2) All semi-quantified PET data are expressed as means±SEM. Where applicable, statistical differences were tested by unpaired Student's t test and were considered significant for p<0.05 (*), p<0.01 (**) and p<0.001 (***).

[2] = system: MDA-MB231 breast cancer xenografts; test: Dynamic PET imaging of radiotracer uptake in MDA-MB231 tumor-bearing mice; type: in vivo, NIH-III nude mice; conditions: for SUV mean, Harderian glands / SUV mean, brain / SUV mean, heart / SUV mean, joint / SUV mean, kidneys / SUV mean, liver / SUV mean, muscle / SUV mean, spine / SUV mean, tumor: 60 min
Protocol: (§3) Normal BALB/c mice or breast cancer xenografts were used for the PET imaging experiments. Human MDA-MB231 cells (3-5×10^6 cells in 100 μL PBS) were injected subcutaneously into 8-12 weeks old anesthetized female NIH-III nude mice (Charles River, Saint-Constant, QC, Canada). Tumors were grown for 3-4 weeks, reaching sizes of 300-500 mm^3. For fasting experiments, the food was removed from the mice for 24 h prior to the PET experiment.
as §1, §2

normal BALB/c mice = test: Dynamic PET scans of normal BALB/c mice; type: in vivo; conditions: dynamic PET over 30 minutes; for clearance pathway: FIG. 4A; for heart and brain uptake and retention: FIG. 4A-C
Protocol: as §3
as §1, with “Dynamic PET data acquisition was performed in 3D list mode for 60 min.” left out
as §2

O=C(O)C[C@@H](O)C[18F] [(R)[^18F]FBHB, (R)-[^18F]γ-fluoro-β-hydroxybutyric acid]
brain uptake after 24 hour fast versus fed (SUV ratio versus time) ([1]; MCF7 tumor-bearing mice, FIG. 6A): increased
heart uptake after 24 hour fast versus fed (SUV ratio versus time) ([1]; MCF7 tumor-bearing mice, FIG. 6B): increased
tumor retention after 24 hour fast versus fed (SUV ratio versus time) ([1]; MCF7 tumor-bearing mice, FIG. 6C): better tumor retention
retention in tumor tissue compared to muscle tissue ([1]; subcutaneous MCF-7 tumor, FIG. 3A-B): higher retention in tumor tissue as compared to muscle tissue
SUV mean, Harderian glands ([2]; n=3, 24 h fasted): 1.39 ± 0.11 ^n.s.
SUV mean, brain ([2]; n=3, 24 h fasted): 1.02 ± 0.05 ^n.s.
SUV mean, heart ([2]; n=3, 24 h fasted): 0.95 ± 0.03 ^n.s.
SUV mean, joint ([2]; n=3, 24 h fasted): 1.58 ± 0.02 ^p=0.0501
SUV mean, kidneys ([2]; n=3, 24 h fasted): 2.36 ± 0.25 ^n.s.
SUV mean, liver ([2]; n=3, 24 h fasted): 0.74 ± 0.02 ^n.s.
SUV mean, muscle ([2]; n=3, 24 h fasted): 0.54 ± 0.02
SUV mean, spine ([2]; n=3, 24 h fasted): 1.56 ± 0.03 *
SUV mean, tumor ([2]; n=3, 24 h fasted): 0.89 ± 0.05 *
SUV mean, Harderian glands ([2]; n=3, fed (unfasted)): 1.56 ± 0.13
SUV mean, brain ([2]; n=3, fed (unfasted)): 0.91 ± 0.07
SUV mean, heart ([2]; n=3, fed (unfasted)): 0.84 ± 0.09
SUV mean, joint ([2]; n=3, fed (unfasted)): 1.30 ± 0.10
SUV mean, kidneys ([2]; n=3, fed (unfasted)): 1.96 ± 0.17
SUV mean, liver ([2]; n=3, fed (unfasted)): 0.66 ± 0.08
SUV mean, muscle ([2]; n=3, fed (unfasted)): 0.50 ± 0.05
SUV mean, spine ([2]; n=3, fed (unfasted)): 1.39 ± 0.03
SUV mean, tumor ([2]; n=3, fed (unfasted)): 0.77 ± 0.06
MDA-MB-231 tumor and muscle uptake, 24 hour fast versus fed state (time activity curves) ([2]; FIGS. 9B-C): statistically significant increase in uptake
tumor retention in mice fed a glucose-free, fructose-based diet (SUV ratio versus time) ([2]; MDA-MB231 tumors, FIG. 7): higher
retention in tumor tissue compared to muscle tissue ([2]; subcutaneous MDA-MB231 tumor, FIG. 3A, 3C): higher retention in tumor tissue as compared to muscle tissue
clearance pathway (normal BALB/c mice): renal clearance pathway
heart and brain uptake and retention (normal BALB/c mice): moderate heart and brain uptake and retention

O=C(O)C[C@H](O)C[18F] [(S)[^18F]FBHB, (S)-[^18F]γ-fluoro-β-hydroxybutyric acid]
SUV mean, Harderian glands ([2]; n=3, 24 h fasted): 1.15 ± 0.02
SUV mean, brain ([2]; n=3, 24 h fasted): 1.17 ± 0.02 *
SUV mean, heart ([2]; n=3, 24 h fasted): 1.05 ± 0.02 *
SUV mean, joint ([2]; n=3, 24 h fasted): 1.07 ± 0.08
SUV mean, kidneys ([2]; n=3, 24 h fasted): 1.38 ± 0.16
SUV mean, liver ([2]; n=3, 24 h fasted): 0.80 ± 0.02 *
SUV mean, muscle ([2]; n=3, 24 h fasted): 0.60 ± 0.03
SUV mean, spine ([2]; n=3, 24 h fasted): 1.13 ± 0.04
SUV mean, tumor ([2]; n=3, 24 h fasted): 0.95 ± 0.04
SUV mean, Harderian glands ([2]; n=3, fed (unfasted)): 1.10 ± 0.01
SUV mean, brain ([2]; n=3, fed (unfasted)): 1.08 ± 0.02
SUV mean, heart ([2]; n=3, fed (unfasted)): 0.96 ± 0.01
SUV mean, joint ([2]; n=3, fed (unfasted)): 1.10 ± 0.08
SUV mean, kidneys ([2]; n=3, fed (unfasted)): 1.44 ± 0.05
SUV mean, liver ([2]; n=3, fed (unfasted)): 0.74 ± 0.01
SUV mean, muscle ([2]; n=3, fed (unfasted)): 0.57 ± 0.01
SUV mean, spine ([2]; n=3, fed (unfasted)): 1.10 ± 0.07
SUV mean, tumor ([2]; n=3, fed (unfasted)): 0.91 ± 0.02
visibility of xenograft tumors by PET imaging ([2]; intravenous administration, preliminary studies, FIGS. 8A-B and 9A-C): xenograft tumors were visible by PET imaging
tumor uptake compared with muscle uptake, comparison of isomers ([2]; subcutaneous MDA-MB-231 xenograft, FIG. 8B): higher uptake
clearance pathway (normal BALB/c mice): renal clearance pathway
brain retention, comparison of isomers (normal BALB/c mice; FIG. 4A lower panel): brain retention highest for the S isomer
heart and brain uptake and retention (normal BALB/c mice): moderate heart and brain uptake and retention
